The results in this text go back to ChEMBL document CHEMBL1201862, “PubChem BioAssay data set” (2004).

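Grown in 96-well plates, cells were treated for 48 hours with each compound at five concentrations. Insufficient inhibition: endpoint recorded as highest concentration tested. Here, GI50 denotes the concentration required for 50% inhibition of growth.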 Calls of active or inactive are those of the source. No stated cut-off is given here; in the data, active = GI50 up to about 1.1 µM and inactive = higher.

Some test systems named below: 786-0; HOP-62; MCF7; SNB-75; MDA-N; SK-OV-3; MDA-MB-435; NCI-H226; IGROV-1; RXF 393; M14; SF-539; CCRF-CEM; TK-10; T47D; HT-29; HL-60; NCI-H460; Hs-578T.
Test in all cases: growth of human tumour cells (NCI), 48 h

With `O=C(NNCc1ccccc1O)c1ccccc1O`, the GI50 in the experiment with 786-0 was 11 µM (inactive); with HOP-62, 7.52 µM (inactive); in the experiment on MCF7 it was 12.5 µM (inactive); in the experiment with SNB-75 it was 21.9 µM (inactive); in the experiment with MDA-N, 7.57 µM (inactive); with SK-OV-3, 7.71 µM (inactive). For the same compound, the GI50 in the experiment with MDA-MB-435 was 3.06 µM (inactive); with NCI-H226 it was 24 µM (inactive); with IGROV-1, 1.13 µM (inactive); in the experiment on RXF 393 it was 25.2 µM (inactive); in the experiment on M14, 9.16 µM (inactive); in the experiment with SF-539, 16.5 µM (inactive). For the same compound, the GI50 in the experiment with CCRF-CEM is 0.735 µM (active); in the experiment with TK-10, 31.4 µM (inactive); with T47D, 3.48 µM (inactive); in the experiment on HT-29, 9.38 µM (inactive); with HL-60, 0.495 µM (active).

Consider `ClC/C=C/COC1CCCCO1` (stereo not drawn), for which the GI50 in the experiment on 786-0, in the experiment on HOP-62, in the experiment on SNB-75, with NCI-H460, with SK-OV-3 and in the experiment with NCI-H226 was > 100 µM (inactive) in each case. The GI50 is > 100 µM (inactive) with IGROV-1; > 100 µM (inactive) with RXF 393; > 100 µM (inactive) in the experiment on M14; > 100 µM (inactive) in the experiment with SF-539; 36.8 µM (inactive) in the experiment with CCRF-CEM; > 100 µM (inactive) in the experiment on TK-10. Further, the GI50 is > 100 µM (inactive) in the experiment on HT-29 and 20.6 µM (inactive) in the experiment on HL-60.

With `COc1ccc(Cc2c3cc(O)c([O-])cc3cc[n+]2C)cc1`, the GI50 was 10.2 µM (inactive) in the experiment on 786-0; 10.3 µM (inactive) in the experiment with HOP-62; 48.2 µM (inactive) with SNB-75; 5.68 µM (inactive) in the experiment with NCI-H460; 41.5 µM (inactive) with SK-OV-3; 25.7 µM (inactive) with NCI-H226. Also, the GI50 was 30.3 µM (inactive) in the experiment on IGROV-1; 11.8 µM (inactive) in the experiment with RXF 393; 11.4 µM (inactive) in the experiment with M14; 19.1 µM (inactive) in the experiment with SF-539; 4.95 µM (inactive) in the experiment with CCRF-CEM; 98.4 µM (inactive) in the experiment with TK-10. The GI50 is 52.7 µM (inactive) with HT-29 and 16.3 µM (inactive) with HL-60.

Take `N#CC(C(=O)Nc1ccccc1)C1=C(Cl)C(=O)c2ccccc2C1=O` (stereo not drawn): the GI50 is 14.6 µM (inactive) with 786-0; 17.9 µM (inactive) with HOP-62; > 10 µM (inactive) in the experiment with SNB-75; 33.9 µM (inactive) in the experiment with NCI-H460; 23.9 µM (inactive) with SK-OV-3; 17 µM (inactive) in the experiment with NCI-H226. Also, the GI50 in the experiment with IGROV-1 was 17.9 µM (inactive); in the experiment on RXF 393, 17.6 µM (inactive); in the experiment on M14 it was 16.5 µM (inactive); with SF-539, 15.2 µM (inactive); in the experiment on CCRF-CEM it was 7.59 µM (inactive); in the experiment with TK-10, 21.7 µM (inactive). The GI50 is 26 µM (inactive) in the experiment on HT-29 and 4.23 µM (inactive) in the experiment with HL-60.

On to `O=C1c2c(c3c4ccccc4n(CC4CO4)c3c3[nH]c4ccccc4c23)C(=O)N1Cc1ccccc1` (stereo not drawn), for which the GI50 in the experiment on 786-0 was > 100 µM (inactive); in the experiment on HOP-62, > 100 µM (inactive); in the experiment on SNB-75, > 10 µM (inactive); with NCI-H460, 89.5 µM (inactive); in the experiment on SK-OV-3, > 100 µM (inactive); with NCI-H226, 48.6 µM (inactive). Moreover, the GI50 was 67 µM (inactive) with IGROV-1; > 100 µM (inactive) in the experiment on RXF 393; > 100 µM (inactive) in the experiment on M14; 37.1 µM (inactive) in the experiment on SF-539; > 100 µM (inactive) in the experiment with CCRF-CEM; > 100 µM (inactive) in the experiment on TK-10. In addition, the GI50 in the experiment on HT-29 and with HL-60 was > 100 µM (inactive) in each case.

Consider `CC1=CC(=O)CC2(C)CC[C@@H]3C[C@]12OC3(C)C` (stereo partly drawn), for which the GI50 with 786-0, in the experiment on HOP-62, with SNB-75, with NCI-H460, in the experiment on SK-OV-3 and in the experiment with NCI-H226 was > 100 µM (inactive) each time. In addition, the GI50 with IGROV-1, in the experiment with RXF 393, with M14, with SF-539, in the experiment on CCRF-CEM and in the experiment with TK-10 was > 100 µM (inactive) each time. Besides, the GI50 with HT-29 and in the experiment on HL-60 was > 100 µM (inactive) in each case.

Regarding `O=C1C2C=CC(n3[nH]c(=O)n(Cc4ccccc4)c3=O)CC2C(=O)N1c1cccc(Cl)c1` (stereo not drawn), the GI50 in the experiment with 786-0, in the experiment with HOP-62, in the experiment on SNB-75, in the experiment with NCI-H460, in the experiment on SK-OV-3 and with NCI-H226 was > 100 µM (inactive) each time. Moreover, the GI50 in the experiment with IGROV-1, in the experiment with RXF 393, in the experiment with M14, in the experiment on SF-539, in the experiment on CCRF-CEM and in the experiment on TK-10 was > 100 µM (inactive) in each case. Also, the GI50 in the experiment on HT-29 and with HL-60 was > 100 µM (inactive) in each case.

Take `NS(=O)(=O)c1ccc(NC2=CC(=O)C(=O)c3ccccc32)cc1`: the GI50 with 786-0, in the experiment on HOP-62, in the experiment on SNB-75, with NCI-H460, in the experiment on SK-OV-3 and in the experiment with NCI-H226 was > 100 µM (inactive) each time. The GI50 in the experiment with IGROV-1, with RXF 393, in the experiment with M14, in the experiment with SF-539, with CCRF-CEM and in the experiment on TK-10 was > 100 µM (inactive) throughout. For the same compound, the GI50 with HT-29 and in the experiment with HL-60 was > 100 µM (inactive) each time.

As to `C[C@]12CCC(N3CCCC3)CC1=CC[C@@H]1[C@@H]2CC[C@]2(C)C(O)[C@H](n3ccnc3)C[C@@H]12` (stereo partly drawn), the GI50 is 41.6 µM (inactive) with 786-0; 45 µM (inactive) in the experiment on MCF7; > 10 µM (inactive) in the experiment with SNB-75; 44.2 µM (inactive) in the experiment on MDA-N; 42.6 µM (inactive) in the experiment with NCI-H460; 36.6 µM (inactive) in the experiment on MDA-MB-435. Moreover, the GI50 in the experiment with NCI-H226 is > 100 µM (inactive); in the experiment on IGROV-1, 59.8 µM (inactive); in the experiment with RXF 393, 17.4 µM (inactive); with M14, 15.7 µM (inactive); in the experiment with SF-539, 19 µM (inactive); in the experiment on CCRF-CEM, 15.7 µM (inactive). Also, the GI50 is > 100 µM (inactive) in the experiment on TK-10, 5.85 µM (inactive) in the experiment on HT-29, 5.58 µM (inactive) in the experiment with HL-60 and > 10 µM (inactive) in the experiment with Hs-578T.

For the compound `COc1ccc(/C(C)=N/NC(N)=S)c(OC)c1`, the GI50 in the experiment on 786-0, with HOP-62, in the experiment on SNB-75, in the experiment with NCI-H460, in the experiment on SK-OV-3 and in the experiment on NCI-H226 was > 100 µM (inactive) each time. Further, the GI50 with IGROV-1, in the experiment on RXF 393, in the experiment on M14, with SF-539, with CCRF-CEM and in the experiment with TK-10 was > 100 µM (inactive) throughout. The GI50 with HT-29 is > 100 µM (inactive); with HL-60, 51.3 µM (inactive).

On to `CCOC(=O)CC(C)C1(C(=O)OCC)CCCCC1=O` (stereo not drawn), for which the GI50 was 55 µM (inactive) in the experiment with 786-0; > 100 µM (inactive) with HOP-62; > 100 µM (inactive) in the experiment on SNB-75; > 100 µM (inactive) with NCI-H460; > 100 µM (inactive) in the experiment on SK-OV-3; > 100 µM (inactive) in the experiment with NCI-H226. Besides, the GI50 in the experiment with IGROV-1, in the experiment with RXF 393, in the experiment with M14, in the experiment on SF-539, in the experiment with CCRF-CEM and in the experiment on TK-10 was > 100 µM (inactive) throughout. For the same compound, the GI50 with HT-29 and with HL-60 was > 100 µM (inactive) in each case.

For the compound `O=C1OC(c2ccccc2)=N/C1=C/NC(Cc1ccccc1)C(=O)O` (stereo not drawn), the GI50 in the experiment on 786-0 is > 100 µM (inactive); in the experiment with HOP-62 it was > 100 µM (inactive); in the experiment with SNB-75 it was 50.8 µM (inactive); in the experiment with NCI-H460, > 100 µM (inactive); with SK-OV-3, > 100 µM (inactive); in the experiment on NCI-H226, > 100 µM (inactive). The GI50 with IGROV-1, in the experiment on RXF 393, with M14, in the experiment on SF-539, with CCRF-CEM and with TK-10 was > 100 µM (inactive) each time. Further, the GI50 in the experiment on HT-29 and in the experiment on HL-60 was > 100 µM (inactive) each time.

With `COC(=O)N1C[C@@]2(C=CC3(CC2)OCCO3)c2ccccc21`, the GI50 with 786-0 was > 100 µM (inactive); in the experiment on HOP-62 it was > 100 µM (inactive); in the experiment on MCF7 it was 96.4 µM (inactive); with SNB-75 it was 53.6 µM (inactive); with MDA-N it was 51.1 µM (inactive); with NCI-H460 it was 90.4 µM (inactive). Moreover, the GI50 in the experiment on SK-OV-3 was > 100 µM (inactive); with MDA-MB-435, 23.7 µM (inactive); in the experiment with IGROV-1 it was 49.1 µM (inactive); in the experiment with M14, > 100 µM (inactive); in the experiment with CCRF-CEM, 45.2 µM (inactive); in the experiment on TK-10, > 100 µM (inactive). The GI50 was > 100 µM (inactive) in the experiment on T47D, 28.2 µM (inactive) with HT-29 and 11.2 µM (inactive) in the experiment with HL-60.
